Experimental data from PubChem BioAssay (NCI).
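48-hour exposure; five concentrations; linearly interpolated endpoints. GI50 = concentration required for 50% inhibition of growth. The concentration for full growth arrest is given as TGI.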

Legend:
Test in all cases: inhibition of tumour cell growth, NCI panel, 48 h
[1] = tested on: 786-0 renal
[2] = tested on: A498 renal
[3] = tested on: A549 NSCLC
[4] = tested on: ACHN renal
[5] = tested on: BT-549 breast
[6] = tested on: CAKI-1 renal
[7] = tested on: CCRF-CEM leukemia
[8] = tested on: COLO 205 colon
[9] = tested on: DU-145 prostate
[10] = tested on: EKVX NSCLC
[11] = tested on: HCC-2998 colon
[12] = tested on: HCT-116 colon
[13] = tested on: HCT-15 colon
[14] = tested on: HL-60(TB) leukemia
[15] = tested on: HOP-62 NSCLC
[16] = tested on: HOP-92 NSCLC
[17] = tested on: HS 578T breast
[18] = tested on: HT29 colon
[19] = tested on: IGROV1 ovarian
[20] = tested on: K-562 leukemia
[21] = tested on: KM12 colon
[22] = tested on: LOX IMVI melanoma
[23] = tested on: M14 melanoma
[24] = tested on: MALME-3M melanoma
[25] = tested on: MCF7 breast
[26] = tested on: MDA-MB-231 breast
[27] = tested on: MDA-MB-435
[28] = tested on: MOLT-4 leukemia
[29] = tested on: NCI-H226 lung
[30] = tested on: NCI-H23 lung
[31] = tested on: NCI-H460 lung
[32] = tested on: NCI-H522 lung
[33] = tested on: NCI/ADR-RES ovarian
[34] = tested on: OVCAR-3 ovarian
[35] = tested on: OVCAR-4 ovarian
[36] = tested on: OVCAR-5 ovarian
[37] = tested on: OVCAR-8 ovarian
[38] = tested on: PC-3 prostate
[39] = tested on: RPMI-8226 leukemia
[40] = tested on: RXF 393 renal
[41] = tested on: SF-268 CNS
[42] = tested on: SF-295 CNS
[43] = tested on: SF-539 CNS
[44] = tested on: SK-MEL-2 melanoma
[45] = tested on: SK-MEL-28 melanoma
[46] = tested on: SK-MEL-5 melanoma
[47] = tested on: SK-OV-3 ovarian
[48] = tested on: SN12C renal
[49] = tested on: SNB-19 CNS
[50] = tested on: SNB-75 CNS
[51] = tested on: SR leukemia
[52] = tested on: SW-620 colon
[53] = tested on: T-47D breast
[54] = tested on: TK-10 renal
[55] = tested on: U251 CNS
[56] = tested on: UACC-257 melanoma
[57] = tested on: UACC-62 melanoma
[58] = tested on: UO-31 renal

Question: For `COc1ccc(/C=N/C2=C(C#N)C(c3ccccc3)c3c(ccc4ccccc34)O2)cc1` (stereo unspecified), which GI50 [1] is on record?
Answer: Its GI50 is 4.48 µM.

Question: What about the TGI [1] of the same compound?
Answer: Its TGI is 38.7 µM.

Question: And the GI50 [2]?
Answer: Its GI50 is 0.594 µM.

Question: What about the TGI [2] of the same compound?
Answer: Its TGI is 6.18 µM.

Question: What about the GI50 [3] of the same compound?
Answer: The GI50 was 1.99 µM.

Question: What about the TGI [3] of the same compound?
Answer: The TGI was over 100 µM.

Question: And the GI50 [4]?
Answer: The GI50 was 4.09 µM.

Question: And the TGI [4]?
Answer: Its TGI is 54.4 µM.

Question: What about the GI50 [5] of the same compound?
Answer: Its GI50 is 1.17 µM.

Question: And the TGI [5]?
Answer: Its TGI is 20.9 µM.

Question: What about the GI50 [6] of the same compound?
Answer: The GI50 was 0.457 µM.

Question: And the TGI [6]?
Answer: The TGI was 20.4 µM.

Question: What about the GI50 [7] of the same compound?
Answer: The GI50 was 0.751 µM.

Question: What about the TGI [7] of the same compound?
Answer: Its TGI is over 100 µM.

Question: And the GI50 [8]?
Answer: The GI50 was 2.36 µM.

Question: What about the TGI [8] of the same compound?
Answer: The TGI was 21.2 µM.

Question: And the GI50 [9]?
Answer: The GI50 was 3.26 µM.

Question: And the TGI [9]?
Answer: The TGI was 18.6 µM.

Question: And the GI50 [10]?
Answer: The GI50 was 5.02 µM.

Question: And the TGI [10]?
Answer: Its TGI is over 100 µM.

Question: What about the GI50 [11] of the same compound?
Answer: Its GI50 is 3.81 µM.

Question: And the TGI [11]?
Answer: Its TGI is 31.5 µM.

Question: And the GI50 [12]?
Answer: The GI50 was 0.516 µM.

Question: And the TGI [12]?
Answer: The TGI was 19.2 µM.

Question: And the GI50 [13]?
Answer: The GI50 was 0.564 µM.

Question: And the TGI [13]?
Answer: The TGI was 29 µM.

Question: And the GI50 [14]?
Answer: Its GI50 is 0.649 µM.

Question: And the TGI [14]?
Answer: The TGI was 6 µM.

Question: And the GI50 [15]?
Answer: The GI50 was 1.77 µM.

Question: And the TGI [15]?
Answer: The TGI was 60.1 µM.

Question: And the GI50 [16]?
Answer: Its GI50 is 1.16 µM.

Question: And the TGI [16]?
Answer: The TGI was 18.2 µM.

Question: And the GI50 [17]?
Answer: The GI50 was 2.15 µM.

Question: What about the TGI [17] of the same compound?
Answer: Its TGI is 23.8 µM.

Question: And the GI50 [18]?
Answer: Its GI50 is 0.702 µM.

Question: What about the TGI [18] of the same compound?
Answer: Its TGI is 15.3 µM.

Question: And the GI50 [19]?
Answer: The GI50 was 0.57 µM.

Question: And the TGI [19]?
Answer: The TGI was 39.3 µM.

Question: And the GI50 [20]?
Answer: The GI50 was 0.37 µM.

Question: What about the TGI [20] of the same compound?
Answer: Its TGI is over 100 µM.

Question: And the GI50 [21]?
Answer: Its GI50 is 1.16 µM.

Question: And the TGI [21]?
Answer: Its TGI is 35.4 µM.

Question: And the GI50 [22]?
Answer: Its GI50 is 2.01 µM.

Question: And the TGI [22]?
Answer: The TGI was 22.8 µM.

Question: What about the GI50 [23] of the same compound?
Answer: The GI50 was 0.459 µM.

Question: What about the TGI [23] of the same compound?
Answer: The TGI was 9.66 µM.

Question: What about the GI50 [24] of the same compound?
Answer: Its GI50 is 0.649 µM.

Question: And the TGI [24]?
Answer: Its TGI is 40.4 µM.

Question: What about the GI50 [25] of the same compound?
Answer: The GI50 was 0.586 µM.

Question: What about the TGI [25] of the same compound?
Answer: Its TGI is 24.5 µM.

Question: And the GI50 [26]?
Answer: The GI50 was 2.5 µM.

Question: What about the TGI [26] of the same compound?
Answer: Its TGI is 22.8 µM.

Question: And the GI50 [27]?
Answer: The GI50 was 0.273 µM.

Question: What about the TGI [27] of the same compound?
Answer: The TGI was 0.834 µM.

Question: What about the GI50 [28] of the same compound?
Answer: Its GI50 is 1.75 µM.

Question: What about the TGI [28] of the same compound?
Answer: Its TGI is over 100 µM.

Question: What about the GI50 [29] of the same compound?
Answer: Its GI50 is 2.17 µM.

Question: And the TGI [29]?
Answer: The TGI was 54.8 µM.

Question: And the GI50 [30]?
Answer: Its GI50 is 3.41 µM.

Question: And the TGI [30]?
Answer: The TGI was over 100 µM.

Question: And the GI50 [31]?
Answer: The GI50 was 1.37 µM.

Question: And the TGI [31]?
Answer: The TGI was 47.1 µM.

Question: And the GI50 [32]?
Answer: Its GI50 is 0.388 µM.

Question: What about the TGI [32] of the same compound?
Answer: The TGI was 37.6 µM.

Question: What about the GI50 [33] of the same compound?
Answer: Its GI50 is 0.916 µM.

Question: And the TGI [33]?
Answer: The TGI was over 100 µM.

Question: What about the GI50 [34] of the same compound?
Answer: The GI50 was 0.464 µM.

Question: And the TGI [34]?
Answer: The TGI was 10.2 µM.

Question: And the GI50 [35]?
Answer: The GI50 was 8.75 µM.

Question: What about the TGI [35] of the same compound?
Answer: Its TGI is over 100 µM.

Question: And the GI50 [36]?
Answer: Its GI50 is 4.53 µM.

Question: And the TGI [36]?
Answer: The TGI was 37.7 µM.

Question: And the GI50 [37]?
Answer: Its GI50 is 4.07 µM.

Question: What about the TGI [37] of the same compound?
Answer: The TGI was over 100 µM.

Question: And the GI50 [38]?
Answer: Its GI50 is 1.22 µM.

Question: What about the TGI [38] of the same compound?
Answer: Its TGI is 18.8 µM.

Question: And the GI50 [39]?
Answer: Its GI50 is 2.66 µM.

Question: And the TGI [39]?
Answer: The TGI was 35.3 µM.

Question: And the GI50 [40]?
Answer: The GI50 was 1.49 µM.

Question: What about the TGI [40] of the same compound?
Answer: The TGI was 7.19 µM.

Question: What about the GI50 [41] of the same compound?
Answer: The GI50 was 2.85 µM.

Question: And the TGI [41]?
Answer: Its TGI is 65.3 µM.

Question: What about the GI50 [42] of the same compound?
Answer: The GI50 was 0.482 µM.

Question: What about the TGI [42] of the same compound?
Answer: The TGI was 11.8 µM.

Question: What about the GI50 [43] of the same compound?
Answer: The GI50 was 1.65 µM.

Question: And the TGI [43]?
Answer: The TGI was 10.4 µM.

Question: And the GI50 [44]?
Answer: Its GI50 is 3.97 µM.

Question: What about the TGI [44] of the same compound?
Answer: The TGI was over 100 µM.

Question: What about the GI50 [45] of the same compound?
Answer: The GI50 was 7.14 µM.

Question: What about the TGI [45] of the same compound?
Answer: The TGI was 59.8 µM.

Question: And the GI50 [46]?
Answer: Its GI50 is 1.74 µM.

Question: What about the TGI [46] of the same compound?
Answer: The TGI was 18.2 µM.

Question: And the GI50 [47]?
Answer: Its GI50 is 4.95 µM.

Question: What about the TGI [47] of the same compound?
Answer: Its TGI is over 100 µM.

Question: And the GI50 [48]?
Answer: Its GI50 is 4.23 µM.

Question: What about the TGI [48] of the same compound?
Answer: The TGI was 26.2 µM.

Question: And the GI50 [49]?
Answer: The GI50 was 2.06 µM.

Question: And the TGI [49]?
Answer: The TGI was 56.2 µM.

Question: What about the GI50 [50] of the same compound?
Answer: The GI50 was 0.466 µM.

Question: What about the TGI [50] of the same compound?
Answer: The TGI was 4.01 µM.

Question: And the GI50 [51]?
Answer: Its GI50 is 0.713 µM.

Question: What about the TGI [51] of the same compound?
Answer: The TGI was over 100 µM.

Question: What about the GI50 [52] of the same compound?
Answer: Its GI50 is 0.732 µM.

Question: And the TGI [52]?
Answer: Its TGI is over 100 µM.

Question: And the GI50 [53]?
Answer: Its GI50 is 2.41 µM.

Question: What about the TGI [53] of the same compound?
Answer: The TGI was over 100 µM.

Question: What about the GI50 [54] of the same compound?
Answer: The GI50 was 19.1 µM.

Question: And the TGI [54]?
Answer: Its TGI is over 100 µM.

Question: What about the GI50 [55] of the same compound?
Answer: The GI50 was 1.87 µM.

Question: What about the TGI [55] of the same compound?
Answer: The TGI was 21.1 µM.

Question: What about the GI50 [56] of the same compound?
Answer: The GI50 was 23.4 µM.

Question: And the TGI [56]?
Answer: The TGI was over 100 µM.

Question: What about the GI50 [57] of the same compound?
Answer: Its GI50 is 0.711 µM.

Question: What about the TGI [57] of the same compound?
Answer: Its TGI is over 100 µM.

Question: And the GI50 [58]?
Answer: The GI50 was 1.09 µM.

Question: What about the TGI [58] of the same compound?
Answer: The TGI was 37.7 µM.
